Results: patent US20150197433A1, “Compositions and methods for treating toilets” (Integrated Chemical Technologies, Inc., priority 2014, published 2015)

System: urease enzyme
Assay: Testing Glycine Hydroxamate: ammonia odor of treated water loaded with urine and fecal matter
Conditions: for odor of ammonia: 0.04 grams in 200 ml water with bronopol, citric acid, sodium bicarbonate, sulfamic acid, fragrance, approximately 80° F., after 7 days
Description: To each of two flask, 200 ml of distilled water was combined with 0.04 grams of bronopol, 0.04 grams of either acetylhydroxamic acid or 0.04 grams of glycine hydroxamate, 0.10 grams of citric acid, 0.023 grams sodium bicarbonate, 0.027 grams of sulfamic acid, and 0.04 grams of mulberry fragrance. To each sample, 9 ml of urine and 1.5 grams of fecal matter was added and swirled.

Row | Structure (SMILES) | odor of ammonia | performance compared with acetylhydroxamic acid (under test conditions)
1 | NCC(=O)NO [glycine hydroxamate] | no detectable odor of ammonia | comparable to acetylhydroxamic acid
2 | CC(=O)NO [acetylhydroxamic acid, reference compound] | no detectable odor of ammonia | 
